# Reference: US8759031B2, “Type I polyketide synthase extender units” (priority 2007, dated 2014)
# Read-outs that look alike come from different tables or passages of the source.
# B1: holo-ZmaD: acyl carrier protein ZmaD (SEQ ID NO:2) phosphopantetheinylated in vitro by Sfp (protein, listed as Bacillus cereus)
# chain: MDNHEKIRQYIKKNLIIFNAEETIVANDENIFEKGYVNSLFAMQMLNFIETEFDIVVDNDELDIINFSTINNMVDLINKKKNGNFTV
# modifications: phosphopantetheinylated
# Key:
# [1] = biological target: T1, ZmaJ (Bacillus cereus, UniProt Q7BQ71)
# T1 sequence (Q7BQ71 whole entry): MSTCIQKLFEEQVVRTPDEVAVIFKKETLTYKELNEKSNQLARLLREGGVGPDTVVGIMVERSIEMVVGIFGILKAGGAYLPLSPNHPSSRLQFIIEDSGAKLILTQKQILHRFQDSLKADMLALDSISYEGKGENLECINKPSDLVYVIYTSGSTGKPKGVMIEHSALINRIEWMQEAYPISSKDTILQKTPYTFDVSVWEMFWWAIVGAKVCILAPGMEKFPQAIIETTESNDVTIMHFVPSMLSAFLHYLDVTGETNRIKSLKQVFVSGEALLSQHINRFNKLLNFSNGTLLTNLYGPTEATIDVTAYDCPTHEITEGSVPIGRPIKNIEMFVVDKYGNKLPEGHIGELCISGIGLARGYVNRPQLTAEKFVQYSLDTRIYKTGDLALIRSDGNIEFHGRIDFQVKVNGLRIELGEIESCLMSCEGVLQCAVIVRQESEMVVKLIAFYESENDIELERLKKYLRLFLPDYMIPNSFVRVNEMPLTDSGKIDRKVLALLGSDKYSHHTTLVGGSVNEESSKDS
# Method: ATP-PPi exchange assays were performed as previously described (Thomas et al., 2002, Chem. Biol. 9: 171-184). Reactions for amino acid specificity contained 70 nM ZmaJ and 1 mM of the following amino acids: L-Ser, L-2,3-diaminopropionate, L-Thr, Gly, and L-Cys. To determine the kinetic parameters of ZmaJ activation of L-Ser, 100 μL reactions containing 70 nM ZmaJ, 3.5 mM ATP, and varying concentrations of L-Ser (0.35 to 10 mM), in triplicate, were incubated for 10 min prior to stopping the reactions.
# [2] = tested on: N[C@@H](CO)C(=O)O; assay: purified protein, by the assay type; conditions: other: 70 nM ZmaJ, 3.5 mM ATP, L-Ser 0.35 to 10 mM, 10 min, triplicate
# Method: ZmaJ used in these assays was purified by an additional anion exchange chromatography step, which had no effect on seryl-ZmaH formation. […] Reactions for amino acid specificity contained 70 nM ZmaJ and 1 mM of the following amino acids: L-Ser, L-2,3-diaminopropionate, L-Thr, Gly, and L-Cys. To determine the kinetic parameters of ZmaJ activation of L-Ser, 100 μL reactions containing 70 nM ZmaJ, 3.5 mM ATP, and varying concentrations of L-Ser (0.35 to 10 mM), in triplicate, were incubated for 10 min prior to stopping the reactions. The reactions were in the linear range for enzyme concentration and less than 10% substrate-to-product conversion.
# [3] = tested on: ZmaN; assay: Formation of glyceryl-ZmaD (ZmaN-catalyzed modification of holo-ACP, HPLC analysis); format: biochemical, Bacillus cereus; conditions: 50 μM 3-PG, ATP
# Chain of ZmaN (as listed by the source, one chain of several): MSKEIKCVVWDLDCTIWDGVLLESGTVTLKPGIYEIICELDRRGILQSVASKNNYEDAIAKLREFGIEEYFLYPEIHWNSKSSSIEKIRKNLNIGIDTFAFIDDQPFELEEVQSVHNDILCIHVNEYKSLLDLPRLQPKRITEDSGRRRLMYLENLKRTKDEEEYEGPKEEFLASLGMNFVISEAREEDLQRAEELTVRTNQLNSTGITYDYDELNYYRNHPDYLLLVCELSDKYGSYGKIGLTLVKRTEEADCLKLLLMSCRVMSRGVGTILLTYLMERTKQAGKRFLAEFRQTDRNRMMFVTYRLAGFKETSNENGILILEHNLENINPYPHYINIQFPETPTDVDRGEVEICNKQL
# Method: Control reactions were run without ZmaN, ATP, or with 2 U of 3-PGPK (Sigma). A time course comparing reactions with and without 3-PGPK contained 50 μM 3-PG, and the reactions were run for 0.5, 2.0, 5.0, and 10 min.
# Reactions containing glyceraldehyde-3-phosphate (150 μl final volume) contained: 12.5 μM holo-ZmaD, 75 mM Tris pH 7.5, 10 mM MgCl2, 1 mM TCEP, 100 mM NaCl, 500 μM CoA, 1 μM Sfp, 250 μM DL-glyceraldehyde-3-phosphate (Sigma), 1 U GAPDH (Sigma), and 1 μM ZmaN were run for 40 min at 22° C. Control reactions without GAPDH, DL-glyceraldehyde-3-phosphate, Sfp, or ZmaN were run, as well as control reactions in which holo-ZmaH replaced holo-ZmaD.
# [4] = biological target: T1, ZmaJ; conditions: 10 μM holo-ZmaD replaced holo-ZmaH; L-serine, ATP
# Method: Reaction mixtures (130 or 260 μl) contained: 10 μM holo-ZmaH, 58 mM Tris pH 7.5, 8 mM MgCl2, 0.8 mM TCEP, 385 μM CoA, 0.8 μM Sfp, 250 μM L-serine, 5 mM ATP, and 1 μM ZmaJ. The reaction mixtures were incubated at 22° C. for 1 hour. To test whether seryl-ZmaD could be formed, 10 μM holo-ZmaD replaced the 10 μM holo-ZmaH in a 130 μL reaction mixture.
# In this experiment, 100-200 μl of apo- or holo-ZmaH or 130-200 μl of aminoacylated ZmaH reaction products was injected, and products were separated using the same method as above.
molecule,measurement,setting,value
N[C@@H](CS)C(=O)O [L-Cys],amino acid substrate specificity of ZmaJ (activation),"[1]; 70 nM ZmaJ, 1 mM amino acid",activated only L-Ser
NCC(=O)O [Gly],amino acid substrate specificity of ZmaJ (activation),[1],activated only L-Ser
ZmaJ (Bacillus cereus),Km,[2],1800 ± 200 µM
same,kcat,[2],0.7 ± 0.033 s⁻¹
C[C@@H](O)[C@H](N)C(=O)O [L-Thr],amino acid substrate specificity of ZmaJ (activation),"[1]; 70 nM ZmaJ, 1 mM amino acid",activated only L-Ser
"L-2,3-diaminopropionate",amino acid substrate specificity of ZmaJ (activation),"[1]; 70 nM ZmaJ, 1 mM amino acid",activated only L-Ser
"N[C@@H](CO)C(=O)O [L-Ser, L-serine]",amino acid substrate specificity of ZmaJ (activation),"[1]; 70 nM ZmaJ, 1 mM amino acid",activated only L-Ser
B1,rate of holo-ZmaD modification,[3]; with 3-PGPK,1.44 nmol/min
same,rate of holo-ZmaD modification,[3]; without 3-PGPK,0.08 nmol/min
same,aminoacylation by ZmaJ (seryl-ACP formation),[4],not able to aminoacylate
